Assay results reported in patent US20050215978A1, “Method of enhancing catheter patency using a citrate salt catheter lock solution” (priority 2001, published 2005).

Assays:
[1] = urokinase use to open occluded or low-flowing tunneled catheters / clotting of catheters in dialysis unit; assay type: in vivo, human patients; details: satellite outpatient hospital unit, Jan 1998-May 1999
bacteremia = assay: monthly incidence of bacteremia in outpatient hemodialysis unit by catheter lock solution; assay type: in vivo, human patients

**Q.** Which results are given for heparin?
**A.** urokinase use [1]: remained low; incidence of bacteremia, percent of patients in the unit per month (bacteremia; RTC unit, 70 patients, about 60% with tunneled catheters, heparin Jan-Jul 1998, citrate locks Sep 1998-Jul 1999, 47% citrate May-Jul 1999): 4.6%; incidence of bacteremia, all other months (bacteremia; satellite outpatient hospital unit, 20 ESRD patients, Jan 1998-May 1999): zero; incidence of bacteremia, percent of all patients, the one month with a case (bacteremia; satellite outpatient hospital unit, 20 ESRD patients, Jan 1998-May 1999, one patient in one month): 5%
